Measurements taken from patent US7566733B2, “Benzimidazole derivatives useful as selective androgen receptor modulators (sarms)” (priority 2004, dated 2009).

System: castrated male Sprague Dawley rats
Experiment: Ventral Prostate and Seminal Vesicle Weight In Vivo Assay; note: key: active: the non weight adjusted prostate weight was ≦40 mg or the % Inhibition prostate weight, body weight adjusted was ≧40%@2 mg/day dosage; inactive: did not meet the specified criteria defined above
Details: inhibition of testosterone-enhanced prostate weight; immature castrated rats, once daily for five days, usually orally 40 mg/kg, with testosterone propionate 2 mg/kg s.c.
Method: Ventral Prostate and Seminal Vesicle Weight In Vivo Assay; note: key: active: the non weight adjusted prostate weight was ≦40 mg or the % Inhibition prostate weight, body weight adjusted was ≧40%@2 mg/day dosage; inactive: did not meet the specified criteria defined above
Immature (approximately 50 g) castrated male Sprague Dawley rats (Charles River) were treated once daily for five days with test compound (usually given orally at 40 mg/kg in a volume of 0.3 mL, in 30% cyclodextrin or 0.5% methylcellulose vehicle) and with testosterone propionate (given subcutaneously by injection at the nape of the neck at 2 mg/kg, in a volume of 0.1 mL in sesame oil). On the sixth day, the rats were euthanized by asphyxiation in carbon dioxide. Ventral prosatates and seminal vesicles were removed and their wet weights determined. Test compound activity was determined as the percent inhibition of testosterone-enhanced tissue weights, with a vehicle-treated control group set to zero percent and a testosterone alone-treated control group set to 100%.
Representative compounds of the present invention were tested according to the procedure described, with results as listed in Table 7 below. A test compound is listed as “active” if the non weight adjusted prostate weight was ≦40 mg or the % Inhibition prostate weight, body weight adjusted was ≧40%@2 mg/day dosage. ID50's, if determined, of ≦15 mg/day also indicated an “active” compound.

For `Fc1ccc(Cn2c(CC(F)(F)F)nc3cc(Cl)c(Cl)cc32)cc1` [Compound 89, 5,6-Dichloro-1-(4-fluoro-benzyl)-2-(2,2,2-trifluoro-ethyl)-1H-benzoimidazole], which Activity is on record?
Its Activity is “active”.

For `COc1ccccc1C(=O)Cn1c(CC(F)(F)F)nc2cc(Cl)c(Cl)cc21` [Compound 90, 2-[5,6-Dichloro-2-(2,2,2-trifluoro-ethyl)-benzoimidazol-1-yl]-1-(2-methoxy-phenyl)-ethanone], which Activity is on record?
Its Activity is “inactive”.

Which Activity does the source give for `O=C(Cn1c(CC(F)(F)F)nc2cc(Cl)c(Cl)cc21)c1cccs1` [Compound 91, 2-[5,6-Dichloro-2-(2,2,2-trifluoro-ethyl)-benzoimidazol-1-yl]-1-thiophen-2-yl-ethanone] here?
Its Activity is “active”.

Which Activity does the source give for `O=C(Cn1c(CC(F)(F)F)nc2cc(Cl)c(Cl)cc21)c1ccccn1` [Compound 92, 2-[5,6-Dichloro-2-(2,2,2-trifluoro-ethyl)-benzoimidazol-1-yl]-1-pyridin-2-yl-ethanone] here?
Its Activity is “active”.

For `FC(F)(F)Cc1nc2cc(Cl)c(Cl)cc2n1Cc1cccc(C(F)(F)F)c1` [Compound 93, 5,6-Dichloro-2-(2,2,2-trifluoro-ethyl)-1-(3-trifluoromethyl-benzyl)-1H-benzoimidazole], which Activity is on record?
The Activity was “active”.

Which Activity does the source give for `Fc1c(F)c(F)c(Cn2c(CC(F)(F)F)nc3cc(Cl)c(Cl)cc32)c(F)c1F` [Compound 94, 5,6-Dichloro-1-pentafluorophenylmethyl-2-(2,2,2-trifluoro-ethyl)-1H-benzoimidazole] here?
The Activity was “inactive”.

Which Activity does the source give for `Cc1cccc(Cn2c(CC(F)(F)F)nc3cc(Cl)c(Cl)cc32)c1` [Compound 95, 5,6-Dichloro-1-(3-methyl-benzyl)-2-(2,2,2-trifluoro-ethyl)-1H-benzoimidazole] here?
The Activity was “inactive”.

Which Activity does the source give for `O=C(Cn1c(CC(F)(F)F)nc2cc(Cl)c(Cl)cc21)c1cccc([N+](=O)[O-])c1` [Compound 96, 2-[5,6-Dichloro-2-(2,2,2-trifluoro-ethyl)-benzoimidazol-1-yl]-1-(3-nitro-phenyl)-ethanone] here?
Its Activity is “inactive”.

`FC(F)(F)Cc1nc2cc(Cl)c(Cl)cc2n1Cc1ccccc1` [Compound 97, 1-Benzyl-5,6-dichloro-2-(2,2,2-trifluoro-ethyl)-1H-benzoimidazole] was tested. Which Activity did it give?
Its Activity is “active”.

How did the Activity turn out when `OCCn1c(CC(F)(F)F)nc2cc(Cl)c(Cl)cc21` [Compound 98, 2-[5,6-Dichloro-2-(2,2,2-trifluoro-ethyl)-benzoimidazol-1-yl]-ethanol] was run?
Its Activity is “active”.

How did the Activity turn out when `FC(F)(F)Cc1nc2cc(Cl)c(Cl)cc2n1Cc1cccnc1` [Compound 99, 5,6-Dichloro-1-pyridin-3-ylmethyl-2-(2,2,2-trifluoro-ethyl)-1H-benzoimidazole] was run?
Its Activity is “active”.

With `FC(F)(F)Cc1nc2cc(Cl)c(Cl)cc2n1Cc1ccc(C(F)(F)F)cc1` [Compound 100, 5,6-Dichloro-2-(2,2,2-trifluoro-ethyl)-1-(4-trifluoromethyl-benzyl)-1H-benzoimidazole] as the compound, how does the Activity read?
The Activity was “active”.

`FC(F)(F)Cc1nc2cc(Cl)c(Cl)cc2n1Cc1ccc(OC(F)(F)F)cc1` [Compound 101, 5,6-Dichloro-2-(2,2,2-trifluoro-ethyl)-1-(4-trifluoromethoxy-benzyl)-1H-benzoimidazole] was tested. Which Activity did it give?
Its Activity is “inactive”.

How did the Activity turn out when `FC(F)(F)Cc1nc2cc(Cl)c(Cl)cc2n1Cc1ccccn1` [Compound 102, 5,6-Dichloro-1-pyridin-2-ylmethyl-2-(2,2,2-trifluoro-ethyl)-1H-benzoimidazole] was run?
Its Activity is “active”.

How did the Activity turn out when `O=C(Cn1c(CC(F)(F)F)nc2cc(Cl)c(Cl)cc21)c1ccc2c(c1)OCCO2` [Compound 104, 2-[5,6-Dichloro-2-(2,2,2-trifluoro-ethyl)-benzoimidazol-1-yl]-1-(2,3-dihydro-benzo[1,4]dioxin-6-yl)-ethanone] was run?
The Activity was “inactive”.

With `O=[N+]([O-])c1ccc(Cn2c(CC(F)(F)F)nc3cc(Cl)c(Cl)cc32)cc1` [Compound 105, 5,6-Dichloro-1-(4-nitro-benzyl)-2-(2,2,2-trifluoro-ethyl)-1H-benzoimidazole] as the compound, how does the Activity read?
The Activity was “active”.

With `CO[C@@](C(=O)OC(c1nc2cc(Cl)c(Cl)cc2[nH]1)C(F)(F)F)(c1ccccc1)C(F)(F)F` (stereo partly drawn) [Compound 106] as the compound, how does the Activity read?
The Activity was “active”.

With `FC(F)(F)Cc1nc2cc(Cl)c(Cl)cc2n1Cc1ccncc1` [Compound 108, 5,6-Dichloro-1-pyridin-4-ylmethyl-2-(2,2,2-trifluoro-ethyl)-1H-benzoimidazole] as the compound, how does the Activity read?
The Activity was “active”.

How did the Activity turn out when `N#Cc1cccc(Cn2c(CC(F)(F)F)nc3cc(Cl)c(Cl)cc32)c1` [Compound 109, 3-[5,6-Dichloro-2-(2,2,2-trifluoro-ethyl)-benzoimidazol-1-ylmethyl]-benzonitrile] was run?
Its Activity is “active”.

For `N#Cc1ccccc1Cn1c(CC(F)(F)F)nc2cc(Cl)c(Cl)cc21` [Compound 110, 2-[5,6-Dichloro-2-(2,2,2-trifluoro-ethyl)-benzoimidazol-1-ylmethyl]-benzonitrile], which Activity is on record?
The Activity was “active”.

For `Cc1cc2nc(C(O)C(F)(F)F)[nH]c2cc1C` (stereo not drawn) [Compound 111, 1-(5,6-Dimethyl-1H-benzoimidazol-2-yl-)2,2,2-trifluoro-ethanol], which Activity is on record?
Its Activity is “inactive”.

With `OC(c1nc2cc(Cl)c(F)cc2[nH]1)C(F)(F)F` (stereo not drawn) [Compound 112, 1-(5-Chloro-6-fluoro-1H-benzoimidazol-2-yl-)2,2,2-trifluoro-ethanol] as the compound, how does the Activity read?
Its Activity is “active”.

`OC(c1nc2cc(F)c(F)cc2[nH]1)C(F)(F)F` (stereo not drawn) [Compound 113, 1-(5,6-Difluoro-1H-benzoimidazol-2-yl-)2,2,2-trifluoro-ethanol] was tested. Which Activity did it give?
The Activity was “inactive”.

Which Activity does the source give for `O=C(c1nc2cc(Cl)c(Cl)cc2[nH]1)C(F)(F)F` [Compound 114, 1-(5,6-DiChloro-1H-benzoimidazol-2-yl)-2,2,2-trifluoro-ethanone] here?
The Activity was “active”.

Which Activity does the source give for `Fc1ccc(OCCn2c(CC(F)(F)F)nc3cc(Cl)c(Cl)cc32)cc1` [Compound 115, 5,6-Dichloro-1-[2-(4-fluoro-phenoxy)-ethyl]-2-(2,2,2-trifluoro-ethyl)-1H-benzoimidazole] here?
Its Activity is “active”.

With `N#Cc1ccc(Cn2c(CC(F)(F)F)nc3cc(Cl)c(Cl)cc32)cc1` [Compound 116, 4-[5,6-Dichloro-2-(2,2,2-trifluoro-ethyl)-benzoimidazol-1-ylmethyl]-benzonitrile] as the compound, how does the Activity read?
Its Activity is “active”.

`Fc1ccccc1Cn1c(CC(F)(F)F)nc2cc(Cl)c(Cl)cc21` [Compound 117, 5,6-Dichloro-1-(2-fluoro-benzyl)-2-(2,2,2-trifluoro-ethyl)-1H-benzoimidazole] was tested. Which Activity did it give?
Its Activity is “active”.

`Fc1cccc(Cn2c(CC(F)(F)F)nc3cc(Cl)c(Cl)cc32)c1` [Compound 119, 5,6-Dichloro-1-(3-fluoro-benzyl)-2-(2,2,2-trifluoro-ethyl)-1H-benzoimidazole] was tested. Which Activity did it give?
Its Activity is “active”.

For `FC(F)(F)Cc1nc2cc(Cl)c(Cl)cc2n1Cc1cccc(Cl)c1` [Compound 120, 5,6-Dichloro-1-(3-chloro-benzyl)-2-(2,2,2-trifluoro-ethyl)-1H-benzoimidazole], which Activity is on record?
The Activity was “active”.

With `FC(F)(F)Cc1nc2cc(Cl)c(Cl)cc2n1Cc1ccc(Cl)cc1` [Compound 121, 5,6-Dichloro-1-(4-chloro-benzyl)-2-(2,2,2-trifluoro-ethyl)-1H-benzoimidazole] as the compound, how does the Activity read?
Its Activity is “active”.

With `Fc1cccc(OCCn2c(CC(F)(F)F)nc3cc(Cl)c(Cl)cc32)c1` [Compound 123, 5,6-Dichloro-1-[2-(3-fluoro-phenoxy)-ethyl]-2-(2,2,2-trifluoro-ethyl)-1H-benzoimidazole] as the compound, how does the Activity read?
Its Activity is “inactive”.

`FC(F)(F)Cc1nc2cc(Cl)c(Cl)cc2n1CCOc1ccc(Cl)cc1` [Compound 124, 5,6-Dichloro-1-[2-(4-chloro-phenoxy)-ethyl]-2-(2,2,2-trifluoro-ethyl)-1H-benzoimidazole] was tested. Which Activity did it give?
The Activity was “active”.

`FC(F)(F)Cc1nc2cc(Cl)c(Cl)cc2n1Cc1ccccc1Cl` [Compound 125, 5,6-Dichloro-1-(2-chloro-benzyl)-2-(2,2,2-trifluoro-ethyl)-1H-benzoimidazole] was tested. Which Activity did it give?
The Activity was “active”.

How did the Activity turn out when `Cc1onc(-c2ccccc2)c1C(=O)Cn1c(CC(F)(F)F)nc2cc(Cl)c(Cl)cc21` [Compound 126, 2-[5,6-Dichloro-2-(2,2,2-trifluoro-ethyl)-benzoimidazol-1-yl]-1-(5-methyl-3-phenyl-isoxazol-4-yl)-ethanone] was run?
The Activity was “inactive”.

`Cc1cc2[nH]c(C(O)C(F)(F)F)nc2cc1Cl` (stereo not drawn) [Compound 128, 1-(5-Chloro-6-methyl-1H-benzoimidazol-2-yl-)2,2,2-trifluoro-ethanol] was tested. Which Activity did it give?
The Activity was “inactive”.

`COc1cccc(Cn2c(CC(F)(F)F)nc3cc(Cl)c(Cl)cc32)c1` [Compound 129, 5,6-Dichloro-1-(3-methoxy-benzyl)-2-(2,2,2-trifluoro-ethyl)-1H-benzoimidazole] was tested. Which Activity did it give?
Its Activity is “inactive”.

With `FC(F)(F)Cc1nc2cc(Cl)c(Cl)cc2n1Cc1ccc(-n2cccn2)cc1` [Compound 131, 5,6-Dichloro-1-(4-pyrazol-1-yl-benzyl)-2-(2,2,2-trifluoro-ethyl)-1H-benzoimidazole] as the compound, how does the Activity read?
Its Activity is “inactive”.

How did the Activity turn out when `FC(F)(F)Cc1nc2cc(Cl)c(Cl)cc2n1Cc1ccc(-c2csnn2)cc1` [Compound 132, 5,6-Dichloro-1-(4-[1,2,3]thiadiazol-4-yl-benzyl)-2-(2,2,2-trifluoro-ethyl)-1H-benzoimidazole] was run?
The Activity was “inactive”.

Which Activity does the source give for `Cc1oncc1Cn1c(CC(F)(F)F)nc2cc(Cl)c(Cl)cc21` [Compound 133, 5,6-Dichloro-1-(5-methyl-isoxazol-4-ylmethyl)-2-(2,2,2-trifluoro-ethyl)-1H-benzoimidazole] here?
The Activity was “active”.
